Consider four compounds from patent US20020061869A1, “Free insulin testosterone test” (priority 1998, published 2002).

Series [1] has as its system insulin dependent diabetic patient. Briefly: Example 2: intramuscular depo-testosterone enanthate in an insulin dependent diabetic person. The conditions noted are these: 150 mg intramuscularly three times weekly. It is filed as in vivo, human. The procedure:
A. W. was a person who has been an insulin dependent diabetic for fifteen years. […] They were scheduled for amputation. They used 24 units of Humulin insulin in the morning and 16 units at night. Their fasting blood glucose was 334. Treated with 150 mg of depo-testosterone enanthate intramuscularly, three times weekly, they became euglycemic on less than 12 units daily; see FIG. 1. However, due to the infected heel ulcer, amputation proceeded.

The test system of series [2] is diabetic patient on oral hypoglycemic agents. Briefly: Example 3: intramuscular depo-testosterone in a person on oral hypoglycemic agents. The conditions noted are these: 250 mg intramuscularly three times weekly for four weeks. It is filed as in vivo, human. Here is the method:
J. G. was a person on oral hypoglycemic agents for ten years. Present dosage was 20 mg/day, Micronase 7 (Upjohn). They presented with ulcerations in four areas of their left foot, no dorsal pedis pulsation, and was scheduled for amputation but refused. Fasting glucose was 244.

Series [3] concerns subject (tissue glucose stores). Briefly: Example 5: intramuscular testosterone enanthate, Hemoglobin A1C. Type of series: in vivo, human. The conditions noted are these: 9.9 in May. Here is the method:
Testosterone enanthate 300 mg was given to a subject intramuscularly twice weekly for four weeks, then continued with therapy of 300 mg every two weeks.

In series [4] the test system is patient with uncontrolled diabetes. Briefly: Example 4: testosterone subcutaneous pellets in a person with uncontrolled diabetes. Type of series: in vivo, human. The conditions noted are these: 250 to 900 mg subcutaneous pellets every six weeks over six months, before: 100 units of Humulin. The procedure: G. S. was a person with uncontrolled diabetes for ten years. Seen intermittently for ulceration of the feet, they presented with a serum glucose of 550 while on 100 units of Humulin. They refused admission to the hospital.
Over the course of six months, […] received 250 to 900 mg of […] testosterone subcutaneous pellets every six (6) weeks. […] insulin requirements were reduced 35 units while […] serum glucose remained stable at 140 to 180 mg/dl; see FIG. 3.

Series [5] has as its system insulin dependent diabetes mellitus patient. Briefly: Example 1: intramuscular aqueous testosterone in an insulin dependent diabetic person with gangrene. Type of series: in vivo, human. The procedure:
C. W. was a person with a fifteen-year history of insulin dependent diabetes mellitus. They were hospitalized with gangrene of the middle finger of their right hand and was scheduled for amputation. They had already had bilateral femoral-popliteal bypass surgery for vascular insufficiency of the lower extremities. Due to anorexia, they were given an intramuscular injection of 200 mg of aqueous testosterone. Their fasting glucose fell from 212 to 159.

The subject of series [6] is men with cluster headaches. Briefly: Testosterone supplementation in men with cluster headaches and low Testosterone Ratio Test. The conditions noted are these: two men; supplementation to therapeutic levels at the normal male maximum. It is filed as in vivo, human.
Series [7] concerns the target T1, sex hormone-binding globulin (Homo sapiens, UniProt P04278).
T1 sequence (P04278 30-402): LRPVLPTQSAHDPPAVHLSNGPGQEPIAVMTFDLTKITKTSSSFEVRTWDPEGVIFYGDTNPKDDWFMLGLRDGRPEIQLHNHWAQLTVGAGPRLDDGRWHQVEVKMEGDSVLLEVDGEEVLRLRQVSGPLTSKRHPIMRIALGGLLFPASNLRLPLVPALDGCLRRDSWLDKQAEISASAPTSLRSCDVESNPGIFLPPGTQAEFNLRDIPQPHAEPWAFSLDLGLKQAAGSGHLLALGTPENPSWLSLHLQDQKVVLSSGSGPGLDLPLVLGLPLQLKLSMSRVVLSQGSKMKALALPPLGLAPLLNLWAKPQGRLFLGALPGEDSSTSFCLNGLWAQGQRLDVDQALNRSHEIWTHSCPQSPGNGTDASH
The conditions noted are these: readily reversible at 37° C.; cited from earlier work.

The conditions of series [8]: cited from earlier work.
Series [9] relates to rats. Set-up: dose or concentration left out as unconfirmed. The conditions noted are these: female rats, high dose, cited from earlier work.
Series [10] relates to menopausal women. The conditions noted are these: cited from earlier work.

As to `CCCCCCC(=O)O[C@H]1CC[C@H]2[C@@H]3CCC4=CC(=O)CC[C@]4(C)[C@H]3CC[C@]12C` [Testosterone enanthate], in series [1] (before: 24 units morning and 16 units at night), the insulin requirement daily entry is reported as “less than 12 units”. In addition, the glycemic status entry is reported as “euglycemic” in [1] (person, fasting blood glucose before 334) and “euglycemic” in series [2] (person, fasting glucose before 244). The “use of oral hypoglycemic agents” value in [2] (before: Micronase 20 mg/day) was “discontinuing their oral agents”. Further, the “Hemoglobin A1C” value in series [3] (August, 1998, 300 mg intramuscularly twice weekly for four weeks then every two weeks) was 7.2; in series [3] (October, 1998, 300 mg intramuscularly twice weekly for four weeks then every two weeks), 5.5.
`C[C@]12CC[C@H]3[C@@H](CCC4=CC(=O)CC[C@@]43C)[C@@H]1CC[C@@H]2O` [testosterone] had an insulin requirements reduced in series [4] of 35 units. Besides, in [5] (amputation made unnecessary), the “healing of gangrenous finger” value is “healed completely in two months”. The same compound came in with a fasting glucose in series [5] (person, after intramuscular injection of 200 mg, fell from 212) of 159. In addition, the serum glucose outcome in [5] (repeated dosing every other day for one week) is on record as “normalization of their serum glucose”. Besides, the “insulin requirement (Humulin daily)” value in [5] (repeated dosing every other day for one week, decrease from 44 units) is 24 units. Further, in [6], the cluster headaches/migraines result is given as “complete absence of cluster headaches/migraines for two years”. Further, the “binding affinity K” value in series [7] is “approximately 10^9 M^−1”.
For `Cc1c(C)c2c(c(C)c1O)CCC(C)(COc1ccc(CC3SC(=O)NC3=O)cc1)O2` (stereo not drawn) [troglitazone], the side effects result in series [8] (as reported to date) was “abnormal liver function tests, jaundice, drop in white blood cell count and drop in hemoglobin which may persist for two years”. The “lowering of effective blood level of co-administered drugs” value in series [8] (oral contraceptives, terfenadine, and choleslyramine) is given as “up to 30%”. In [9] (daily for 104 weeks, dose associated with excessive mortality), the sarcomatous tumors entry is given as “statistically significant increase in sarcomatous tumors”. In addition, in series [9], the “exposure relative to estimated human exposure of parent compound” value is reported as 47 fold.
Take estrogen: the “reduction of cardiovascular disease mortality” value in series [10] is recorded as “fifty percent”.
